Experimental findings from patent publication US20150359886A1, “SYSTEM AND METHODS FOR NANOSTRUCTURE PROTECTED DELIVERY OF TREATMENT AGENT AND SELECTIVE RELEASE THEREOF” (priority 2012, published 2015) are described below.

One test relates to L3.6 cells. The class given is cell-based. The settings on record: for cell death (killing) of pancreatic cancer cells: FIG. 2, single agents even at high doses, combination at relatively low dose; for concentration required for a comparable effect with the exogenously applied treatment: exogenously applied Taxol + C6-ceramide combination, no CNT carrier. The method, then:
Human pancreatic cancer lines PANC-1, MIA PaCa-2 (MIA) and L3.6 cells culture, cell viability assay (MTT dye assay) and Western blots assay were performed as described in Cao, C., et al. Galpha(i1) and Galpha(i3) are required for epidermal growth factor-mediated activation of the Akt-mTORC1 pathway. Science signaling 2, ra17 (2009).
Accordingly, experiments were carried out to examine the magnitude of chemosensitization of C6-ceramide on Taxol in different cancer cell lines. The pancreatic cancer cell lines L3.6. PANC-1 and MIA PaCa-2 (MIA) cells were selected for this experiment.
Using same pancreatic cancer cells (L3.6), the inductive heating release was we next tested the on-commandinductive-heating release of the encapsulated chemotherapeutic agents (Taxol and C6-ceramide) from CNTs. The drug-loaded CNTs were added to L3.6 cells for 12 hours, allowing them to be taken up by the cells. The cells were then washed with fresh basal medium (DMEM) 5 times to remove residual CNTs from the media, and a 30 min a.c. magnetic field (25 kHz) was applied to these cells to release the encapsulated drugs (Taxol and C6-ceramide) present in CNTs within the cells. After 48 h, the release of the drugs was inferred and assessed by the degree of cell death.

A further test deals with PANC-1. In words: Cell viability assay (MTT dye assay), PANC-1 pancreatic cancer cells. In kind it is cell-based, Human. Particulars: for cell death (killing) of pancreatic cancer cells: FIG. 2, single agents even at high doses, combination at relatively low dose. On the procedure: (§1) Science signaling 2, ra17 (2009).
(§2) Accordingly, experiments were carried out to examine the magnitude of chemosensitization of C6-ceramide on Taxol in different cancer cell lines. The pancreatic cancer cell lines L3.6. PANC-1 and MIA PaCa-2 (MIA) cells were selected for this experiment. […] However, the side effects noted above remain a challenging problem in this combination regimen and calls for a new delivery method.

The test system of the next test is MIA PaCa-2 (MIA). In words: Cell viability assay (MTT dye assay), MIA PaCa-2 pancreatic cancer cells. The class given is cell-based, Human. The settings on record: for cell death (killing) of pancreatic cancer cells: FIG. 2, single agents even at high doses, combination at relatively low dose. The method, then: as §1, §2
(In general: Tetrazolium assays rely on reduction of a dye to a coloured formazan, in cell work by metabolically active cells.)

Setting [1] is: sensitization of Taxol-induced cell death.

For `CCCCCCCCCCCCC/C=C/[C@@H](O)[C@H](CO)NC(=O)CCCCC` [C6-ceramide], the “cell death (killing) of pancreatic cancer cells” value in the test on L3.6 cells (L3.6), in the test with PANC-1 and in the test with MIA PaCa-2 (MIA) was “limited killing” in each case. For the same molecule, the “concentration needed to reach the chemosensitization effect” value in the test on L3.6 cells (L3.6, sensitization of Taxol-induced cell death) is 5-10 micrograms per milliliter; in the test with PANC-1 (setting [1]), 5-10 micrograms per milliliter; with MIA PaCa-2 (MIA) (setting [1]), 5-10 micrograms per milliliter. Also, the “concentration required for a comparable effect with the exogenously applied treatment” value with L3.6 cells was determined as 10 µg/mL.

In the case of `CC(=O)O[C@H]1C(=O)[C@@]2(C)[C@H]([C@H](OC(=O)c3ccccc3)[C@]3(O)C[C@H](OC(=O)[C@H](O)[C@@H](NC(=O)c4ccccc4)c4ccccc4)C(C)=C1C3(C)C)[C@]1(OC(C)=O)CO[C@@H]1C[C@@H]2O` [Taxol, Paclitaxel], the “cell death (killing) of pancreatic cancer cells” value in the test with L3.6 cells (L3.6), in the test with PANC-1 and in the test on MIA PaCa-2 (MIA) was “limited killing” each time. In addition, in the test with L3.6 cells, the “concentration required for a comparable effect with the exogenously applied treatment” value amounted to 3 µg/mL.
